Results on one compound are retold here after paper PMC5688156, “The natural product carolacton inhibits folate-dependent C1 metabolism by targeting FolD/MTHFD” (Nature Communications, 2017).

Experiment [1] concerns the target T1, ecFolD (Escherichia coli, UniProt P24186).
T1 construct: His-tag (TEV-cleavable, vector pHis-TEV); made in house; host or cells: E. coli BL21 (DE3)
The experiment can be described thus: SPR binding to ecFolD. Also noted: species or system E. coli. As to the method: (§1) All surface plasmon resonance (SPR) experiments described in this study were performed on a Biacore X100 system. Different FolDs with or without His-tag were coupled on CM5 sensor chips (GE Healthcare) by the amine coupling method using a kit from GE Healthcare Life Sciences (Freiburg, Germany). A pH scouting process was performed before protein immobilization to test the most appropriate buffer and the protein concentration for protein coupling. Finally, 20 μg/mL of ecFolD in 10 mM maleate buffer (pH 6.8), 30 μg/mL of ecFolD Q98H in 10 mM maleate buffer (pH 6.3), 40 μg/mL of ecFolD K54N in 10 mM maleate buffer (pH 5.8), 20 μg/mL of spFolD in 10 mM maleate buffer (pH 6.0) and 15 μg/mL of MTHFD2 (His-tag cleaved) in 10 mM maleate buffer (pH 6.8) were used for coupling. In the protein immobilization procedure, the contact time was calculated based on the pH scouting results to achieve ~3000–5000 relative resonance units (RU). The buffer used in the SPR assays was 1× HBS-P buffer (10 mM HEPES pH 7.4, 150 mM NaCl, 0.05% Tween 20). The 1 mM stock solution of carolacton was prepared in 1× HBS-P buffer and diluted to different concentration ranges by two-fold serial dilution. In the SPR assay, the association time was 180 s and the dissociation time was 600 s. Data analysis was performed using the Biacore evaluation software. […]

Experiment [2] deals with T2, ecFolD Q98H (Escherichia coli, UniProt P24186, Q98H).
T2 construct: His-tag (TEV-cleavable, vector pHis-TEV); made in house; host or cells: E. coli BL21 (DE3)
The experiment can be described thus: ecFolD Q98H mutant dehydrogenase (DH) enzyme assay. It is filed as biochemical, E. coli. Here is the method: (6R,S)-5,10-Methylene-5,6,7,8-tetrahydrofolic acid ((6R,S)-5,10-CH2-THF) calcium salt and (6R,S)-5,10-Methenyl-5,6,7,8-tetrahydrofolic acid ((6R,S)-5,10-CH=THF) chloride were purchased from Schircks Laboratories (Bauma, Switzerland) and used as substrates for FolD dehydrogenase and cyclohydrolase enzyme assays, respectively. Only the R-isomer, which accounts for 50% of (6R,S)-5,10-CH2-THF and (6R,S)-5,10-CH=THF, respectively, is used by the enzyme. (6R,S)-5,10-CH2-THF was dissolved in N2-spargeled basic buffer (50 mM Tris-HCl (pH 8.0), 100 mM β-mercaptoethanol) as described by Varshney et al.[25]. (6R,S)-5,10-CH=THF was dissolved in DMSO as a 100 mM stock solution.
Because FolD is a bifunctional enzyme, dehydrogenase and cyclohydrolase activities were determined for FolD enzyme kinetics, respectively. The dehydrogenase activity of FolD was assayed for its substrate 5,10-CH2-THF and cofactor NADP^+ (in the case of MTHFD2, NAD^+ was used as the cofactor) based on monitoring the formation of 5,10-CH=THF, while the cyclohydrolase activity of FolD was determined for its substrate 5,10-CH=THF by monitoring the hydrolysis of […]. The enzyme kinetics for the dehydrogenase activity of all FolDs except hsMTHFD1_DC were determined at 30 °C in 50 mM Tris-HCl (pH 7.5), 30 mM β-mercaptoethanol. […]

The target in experiment [3] is T2, ecFolD Q98H. The experiment can be described thus: SPR binding to ecFolD Q98H. Also noted: species or system E. coli. Here is the method:
as §1

In the case of `CO[C@H](CC(=O)O)[C@@H](C)C(=O)[C@H](C)/C=C(\C)[C@H]1OC(=O)[C@H](O)[C@H](O)/C=C/[C@H](C)CCC[C@@H]1C` [carolacton], in experiment [1], binding was characterised by a dissociation constant (Kd) of 10 nM and the koff was 0.01 s⁻¹. Also, in experiment [2], the IC50 was found to be 313 nM. Also, the 80% effect concentration (IC80) in experiment [2] (read-out: IC80, carolacton inhibition on DH activity) stood at 1930 nM. In experiment [3], this compound yielded a Kd of 20000 nM and a koff of 0.608 s⁻¹.
